target: human GluN1/GluN2B NMDA receptors (Homo sapiens, UniProt Q05586+Q13224); experiment: Cell-based calcium flux (FLIPR) assay on cloned human NR1/NR2B ion channels expressed in mammalian cells; settings: standard assay; glutamate at ~EC80; FLIPR calcium flux
Outline: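 Calcium influx followed by FLIPR fluorescence after 5 min compound exposure and a further 5 min co-agonist challenge: 10 μM glycine with glutamate at ~EC80 (standard) or EC40 (HTS).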

human GluN1/GluN2B NMDA receptors, sequence (Q13224 27-1484, other chains not shown): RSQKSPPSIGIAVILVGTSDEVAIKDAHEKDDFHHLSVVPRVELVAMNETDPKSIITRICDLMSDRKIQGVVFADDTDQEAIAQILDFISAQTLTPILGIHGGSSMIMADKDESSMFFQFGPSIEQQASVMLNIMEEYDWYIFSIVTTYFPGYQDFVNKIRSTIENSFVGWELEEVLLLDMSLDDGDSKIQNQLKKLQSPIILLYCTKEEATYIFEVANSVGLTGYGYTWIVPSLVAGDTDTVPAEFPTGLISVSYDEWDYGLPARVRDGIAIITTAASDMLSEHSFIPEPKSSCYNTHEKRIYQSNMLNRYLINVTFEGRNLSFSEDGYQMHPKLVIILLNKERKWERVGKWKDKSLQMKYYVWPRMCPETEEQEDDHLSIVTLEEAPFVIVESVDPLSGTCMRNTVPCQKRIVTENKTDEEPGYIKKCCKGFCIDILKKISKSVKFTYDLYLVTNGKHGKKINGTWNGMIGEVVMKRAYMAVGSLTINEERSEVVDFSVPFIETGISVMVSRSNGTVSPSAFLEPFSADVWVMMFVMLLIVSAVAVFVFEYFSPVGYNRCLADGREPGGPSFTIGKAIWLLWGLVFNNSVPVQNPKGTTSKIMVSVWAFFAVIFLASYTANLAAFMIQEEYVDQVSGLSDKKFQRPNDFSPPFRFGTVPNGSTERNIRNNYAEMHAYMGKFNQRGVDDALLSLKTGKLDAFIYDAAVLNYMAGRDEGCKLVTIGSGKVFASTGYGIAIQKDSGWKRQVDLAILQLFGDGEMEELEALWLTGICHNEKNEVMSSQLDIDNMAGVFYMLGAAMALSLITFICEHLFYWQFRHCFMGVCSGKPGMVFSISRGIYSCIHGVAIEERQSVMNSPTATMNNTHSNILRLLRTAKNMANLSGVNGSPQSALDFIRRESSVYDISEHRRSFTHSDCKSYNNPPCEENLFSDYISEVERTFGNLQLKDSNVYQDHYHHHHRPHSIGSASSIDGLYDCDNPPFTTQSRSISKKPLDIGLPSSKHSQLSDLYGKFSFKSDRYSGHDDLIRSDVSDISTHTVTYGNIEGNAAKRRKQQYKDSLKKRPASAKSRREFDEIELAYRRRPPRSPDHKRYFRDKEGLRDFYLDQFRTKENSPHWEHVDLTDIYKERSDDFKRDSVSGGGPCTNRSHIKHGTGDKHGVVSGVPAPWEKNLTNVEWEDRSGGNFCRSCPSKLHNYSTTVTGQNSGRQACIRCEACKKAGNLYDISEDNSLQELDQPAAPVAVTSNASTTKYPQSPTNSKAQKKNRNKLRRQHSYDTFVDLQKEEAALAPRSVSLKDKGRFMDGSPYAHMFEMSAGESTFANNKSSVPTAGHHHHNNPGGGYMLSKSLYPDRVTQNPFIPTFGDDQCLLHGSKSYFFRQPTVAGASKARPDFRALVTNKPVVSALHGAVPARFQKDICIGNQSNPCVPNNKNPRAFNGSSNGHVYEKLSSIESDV

SMILES | IC50 [µM]
Cc1nccn1-c1ccnc(OCc2cn(-c3ccc(F)c(C(F)F)c3)nn2)n1 [Example 692, 2-((1-(3-(Difluoromethyl)-4-fluorophenyl)-1H-1,2,3-triazol-4-yl)methoxy)-4-(2-methyl-1H-imidazol-1-yl)pyrimidine] | 1.58
CNc1ccnc(OCc2cn(-c3ccc(F)c(C(F)F)c3)nn2)n1 [Example 413, 2-[[1-[3-(Difluoromethyl)-4-fluoro-phenyl]triazol-4-yl]methoxy]-N-methyl-pyrimidin-4-amine] | 0.015
Cc1cnc(OCc2nnn(-c3cccc(C(F)F)c3)c2C)nc1C [Example 528, 2-[[1-[3-(Difluoromethyl)phenyl]-5-methyl-triazol-4-yl]methoxy]-4,5-dimethyl-pyrimidine] | 0.752
CC(F)(F)c1cc(-n2cc(COc3nccc(N4CCCC4)n3)nn2)ccc1F [Example 591, 2-[[1-[3-(1,1-Difluoroethyl)-4-fluoro-phenyl]triazol-4-yl]methoxy]-4-pyrrolidin-1-yl-pyrimidine] | 0.016
Fc1c(Cl)cccc1-n1cc(COc2ncc(Cl)cn2)nn1 [Example 612, 5-Chloro-2-[[1-(3-chloro-2-fluoro-phenyl)triazol-4-yl]methoxy]pyrimidine] | 1.74

same assay, conditions: standard assay; human GluN1/GluN2B, calcium flux (FLIPR), glutamate ~EC80

SMILES | IC50 [µM]
Cc1cnc(OCc2cn(-c3cccc(C(C)C)c3)nn2)nc1 [Example 266, 2-[[1-(3-Isopropylphenyl)triazol-4-yl]methoxy]-5-methyl-pyrimidine] | 0.01
FC(F)Oc1cc(-n2cc(COc3nccc(Cl)n3)nn2)ccc1Cl [Example 190, 4-Chloro-2-[[1-[4-chloro-3-(difluoromethoxy)phenyl]triazol-4-yl]methoxy]pyrimidine] | 0.026
Cc1cnc(OCc2cn(-c3cccc(C(C)(F)F)c3)nn2)nc1N [Example 314, 2-[[1-[3-(1,1-Difluoroethyl)phenyl]triazol-4-yl]methoxy]-5-methyl-pyrimidin-4-amine] | 0.006
CC(F)(F)c1cccc(-n2cc(COc3nccc(C(F)(F)F)n3)nn2)c1 [Example 304, 2-[[1-[3-(1,1-Difluoroethyl)phenyl]triazol-4-yl]methoxy]-4-(trifluoromethyl)pyrimidine] | 0.711
